According to PMC9009886, “In vitro and in vivo Anti-leishmanial Potential of [Ag (PTA) 4 ]BF 4 and [Ag(HBPz 3 )(PPh 3 )] Silver Complexes” (Revista da Sociedade Brasileira de Medicina Tropical, 2022):
Converted amounts (≈) assume the structure as drawn. Read-outs that look alike come from different tables or passages of the source.

Tests used:
[1] = tested on: amastigote forms of L. (L.) amazonensis in human monocytes; assay: Assay with amastigote forms of L. (L.) amazonensis in human monocytes; type: cell-based, Leishmania (Leishmania) amazonensis
Method: (§1) The assay against amastigote forms was performed using murine peritoneal macrophages and human monocytes, obtained as described for the cytotoxicity assay. The cells were incubated for 48 h in a 24 well-plate containing glass coverslips with the RPMI medium, and cell volume adjusted to 10[5] macrophages/monocyte/mL.
(§2) The adhered cells were infected with promastigote forms of Leishmania spp. and left for 2 h. The test substances were then added at the concentrations used in previous trials and exposed for 24, 48, and 72 h. Coverslips were stained using a Panoptic kit (Laborclin® - Laborclin Products for Laboratories Ltd, Pinhais, Brazil) and quantified using optical microscopy at 400 × magnification. A total of 100 cells were quantified to evaluate the number of infected and uninfected macrophages and internalized amastigotes. Three independent assays were performed on peritoneal macrophages and human monocytes.
(§3) Statistical analysis was performed using linear regression to calculate IC50 using GraphPad Prism® (GraphPad Software Inc. version 6.0, for Windows). Results are expressed as mean ± standard deviation.

[2] = tested on: promastigote forms of Leishmania (Leishmania) amazonensis (IM5584); assay: Assay with promastigote forms, L. (L.) amazonensis; type: cell-based
Method: (§4) We used the species L. (Leishmania) amazonensis [L. (L.) amazonensis] (MHOM/BR/2009/IM5584) and L. (Viannia) guyanensis [L. (V.) guyanensis] (MHOM/BR/1975/M4147), which had been cultivated in the biphasic medium Novy - MacNeal - Nicolle (NNN) and amplified in the RPMI liquid medium (Himedia®). The culture was centrifuged for 15 min at 4,400 g. Parasites were adjusted to a concentration of 10[4] parasites/mL.
(§5) The parasites were used at a concentration of 10[4] parasites/mL. The assay was performed in 96-well plates (KASVI®), and then the same procedure and concentrations of the substances were used in the cytotoxicity assay, with negative control and culture medium containing parasites. The activity of the complexes was evaluated at 24, 48, and 72 h intervals using a Neubauer chamber. In addition, cellular viability was evaluated using the assay. Three independent tests were conducted.
as §3

[3] = tested on: amastigote forms of L. (V.) guyanensis in murine peritoneal macrophages; assay: Assay with amastigote forms of L. (V.) guyanensis in peritoneal macrophages; type: cell-based, Leishmania (Viannia) guyanensis
Method: as §1, §2
(§6) The SI is the relationship between the cytotoxic activity of the tested compound and its anti-leishmanial activity. In our study, the SI was calculated from the ratio of cytotoxicity for macrophages/monocytes with a cytotoxic concentration at 50% (CC50) and action against amastigote forms in each of these cell types with an inhibitory concentration at 50% (IC50), using the equation: SI = CC50IC50-AMA^3
as §3

[4] = tested on: lesions caused by L. (L.) amazonensis; assay: Topical treatment of lesions in hamsters infected with L. (L.) amazonensis; type: in vivo, Mesocricetus auratus; conditions: for Infected cells / internalized amastigotes in lesion fragments: after 30 days of treatment; for Lesion volume (in words): gel topically 0.3 mg/day once a day, Glucantime IM 3 mg (Sb5)/kg/day, 30 days, Ag2 effect after the 14th day
Method: (§7) To prepare the Carbopol®-based gel, Nipagin® was mixed with distilled water until its total solubilization, and then Carpobol® was added. Then, the metal complex was added and incorporated separately in each gel, and triethonolamine was added gradually until a thick gel was obtained. Finally, the metal complexes were mixed at a concentration of 3 mg/L, a value defined for comparative purposes with the positive control of the study (Glucantime®) administered at the same concentration via the intramuscular (IM) route.
(§8) For the assays, 72 adult male aged 60-days golden hamsters (Mesocricetus auratus) that were free of pathogens and had been previously obtained from the Central Vivarium at the INPA (CEUA 060/2018) were used [Appendix C]. The animals were housed in stainless steel cages in air-conditioned rooms, with controlled light, temperature (22-25 °C), humidity (50-60%), and food and water ad libitum.
(§9) Animals were separated into six groups. Five groups were infected with 100 µL of a solution containing 10[6] promastigote/mL of Leishmania spp. The first experiment involved 36 animals infected with L. (L.) amazonensis, and the second experiment involved 36 animals infected with L. (V.) guyanensis. Animals were divided into the following groups:
• Group I: Uninfected control • Group II: Untreated, infected control • Group III: Infected and treated with Glucantime® (IM) • Group IV: Infected and treated with Ag1 (lesions treated topically once a day) • Group V: Infected and treated with Ag2 (lesions treated topically once a day) • Group VI: Infected and treated with gel without the addition of complexes (lesions treated topically once a day)
To evaluate the course of infection, the total volume of the lesion (length, width, and height) was measured using a caliper (Zaas® Precision). Animals were weighed once per week. After 30 days of treatment, the animals were euthanized using ketamine hydrochloride (Dopalen®) combined with xylazine hydrochloride (Anasedan®) following the Animal Use Ethics Commission (CEUA) protocols (060/2018).
(§10) For parasitological studies, a sample of the tissue from the lesion region lesion in each animal was sectioned, and the fragment was printed on a glass slide and stained using the Panoptic kit (Laborclin®). The slides were evaluated using optical microscopy, 30 fields were counted, and the analysis and quantification of infected and uninfected cells and the quantity of internalized amastigote forms were performed. Fragments of each animal’s skin lesions and liver were also sectioned and cultured in an NNN medium for 7 days. After this period, an aliquot containing the fragments was evaluated using optical microscopy for parasitological analysis.
For the in vivo results, we used two-way analysis of variance to evaluate the statistical significance between the groups, followed by the Tukey test to compare the means of the groups at a 95% confidence interval.

[5] = tested on: amastigote forms of L. (L.) amazonensis internalized in murine peritoneal macrophages; assay: Assay with amastigote forms of L. (L.) amazonensis in peritoneal macrophages; type: cell-based, Leishmania (Leishmania) amazonensis
Method: as §1, §2, §6, §3

[6] = tested on: murine peritoneal macrophages; assay: Cytotoxicity (MTT) in murine peritoneal macrophages; type: cell-based, Balb/c (Mus musculus) mice; conditions: for CC50: peritoneal macrophages, MTT
Method: Peritoneal macrophages were extracted from Balb/c (Mus musculus) mice, from colonies of the Central Vivarium at the INPA, with the approval of the Ethics Committee on the Use of Animals (CEUA - INPA 023/2020; Appendix A). The animals were anesthetized with ketamine hydrochloride (Dopalen®), and a ventral incision was made. The RPMI medium was introduced; and the abdominal massage was performed for macrophage activation, followed by aspiration, and centrifuged at 1,500 g for 10 min. Cell concentration was adjusted to 10[4] macrophages/mL[6].
(§11) The assay was performed in 96-well plates (KASVI®). The RPMI medium was added to the cells at a concentration of 10[4] cells/mL/well. The metal complexes were added at concentrations of […] in triplicate as […], and Glucantime® was used at the same concentration as the metal complexes. The negative controls used DMSO at 4 concentrations (2%, 1%, 0.50%, and 0.25%), and the RMPI medium containing the cells remained exposed to the substance for up to 24, 48, and 72 h.
(§12) After each period, a solution of [3-(4,5-dimethylthiazol-2yl) -2,5-diphenyltetrazolium] bromide (MTT) was added to the wells at (concentration of 0.5 mg/mL). The plates were incubated for 4 h at 37 °C and then subjected to spectrophotometry (Biotek®) at an absorbance of 590 nm. Three independent trials were performed with peritoneal macrophages and human monocytes.

[7] = tested on: promastigote forms of Leishmania (Viannia) guyanensis (M4147); assay: Assay with promastigote forms, L. (V.) guyanensis; type: cell-based
Method: as §4, §5, §3

human monocytes = assay: Cytotoxicity (MTT) in human monocytes; type: cell-based; conditions: for CC50: MTT
Method: Human monocytes were obtained after approval from the Research Ethics Committee (CEP-UFAM: 29406319.2.0000.5020) (Appendix B). Blood samples were collected from all patients. Phosphate-buffered saline (PBS) 1 x was added, and the blood/PBS was added gently on Ficoll-Histopaque (Sigma-Aldrich®) [density of 1077] and centrifuged for 30 min/200 g[7]. Peripheral blood mononuclear cells were collected, added PBS 1 x, and centrifuged for 3 min at 400 × g. The cell concentration was adjusted to 10[4] monocytes/mL[7].
as §11, §12

[8] = tested on: lesions caused by L. (V.) guyanensis; assay: Topical treatment of lesions in hamsters infected with L. (V.) guyanensis; type: in vivo, Mesocricetus auratus
Method: as §7, §8
as §9, with “groups: […]” for “groups:”
To evaluate the course of infection, the total volume of the lesion (length, width, and height) was measured using a caliper (Zaas® Precision). […]
as §10, with “Fragments of each animal’s skin lesions and liver were also sectioned and cultured in an NNN medium for 7 days.” left out, “analysis. […]” for “analysis.”

[9] = tested on: amastigote forms of L. (V.) guyanensis in human monocytes; assay: Assay with amastigote forms of L. (V.) guyanensis in human monocytes; type: cell-based, Leishmania (Viannia) guyanensis
Method: as §1, §2, §3

mammalian TrxR = tested on: mammalian TrxR; set-up: method as in PMID 33238608; conditions: purified enzyme and cell extracts; cited from earlier work
[10] = tested on: large panel of cancer cell lines; set-up: method as in PMID 33238608; conditions: cited from earlier work
[11] = tested on: amastigote of L. (L.) amazonensis; set-up: method as in doi:10.1016/j.poly.2014.05.004; conditions: cited from earlier work
[12] = L. (L.) amazonensis (IM5584), 24 h, read-out: IC50 values, promastigote forms
[13] = L. (L.) amazonensis (IM5584), 48 h, read-out: IC50 values, promastigote forms
[14] = L. (L.) amazonensis (IM5584), 72 h, read-out: IC50 values, promastigote forms

Molecule | IC50 ([1]; 24 h) [µM] | IC50 ([1]; 48 h) [µM] | IC50 ([1]; 72 h) [µM] | IC50 [2, 12] [µM] | IC50 [2, 13] [µM] | IC50 [2, 14] [µM] | IC50 ([3]; 24 h) [µM] | IC50 ([3]; 48 h) [µM] | IC50 ([3]; 72 h) [µM] | Infected cells / internalized amastigotes in lesion fragments [4] | Lesion volume (in words) [4] | IC50 ([5]; 24 h) [µM] | IC50 ([5]; 48 h) [µM] | IC50 ([5]; 72 h) [µM] | IC50 ([7]; 24 h) [µM] | IC50 ([7]; 48 h) [µM] | IC50 ([7]; 72 h) [µM] | IC50 ([9]; 24 h) [µM] | IC50 ([9]; 48 h) [µM] | IC50 ([9]; 72 h) [µM] | further results
C1N2CN3CN1CP(C2)C3.C1N2CN3CN1CP(C2)C3.C1N2CN3CN1CP(C2)C3.C1N2CN3CN1CP(C2)C3.F[B-](F)(F)F.[Ag+] [Ag1, [Ag (PTA)4]BF4] | 23.3 ± 1.04 | 69.04 ± 0.34 | 150.7 ± 0.91 | < 10 | 69.2 ± 3.03 | 104 ± 1.47 | 90.51 ± 0.7 | 105.1 ± 0.42 | 116 ± 1.58 | greater number of internalized amastigotes | evolution of lesions | 6.09 ± 0.47 | 14.9 ± 0.41 | 23.8 ± 1.51 | 75.14 ± 0.53 | 130 ± 2.94 | 228.9 ± 1.26 | 109.2 ± 0.63 | 186.6 ± 0.57 | 270.3 ± 0.25 | IC50 ([2]; L. (L.) amazonensis, read-out: Activity class according to IC50, promastigotes): < 10 µM; Cytotoxicity (in words) [6]: toxic; Cytotoxicity (in words) (human monocytes): toxic; Number of amastigotes internalized in lesion ([8]; compared to the treated groups): highest number; Number of infected cells in lesion fragments ([8]; statistical difference compared to Glucantime): largest number of infected cells
[Ag+].c1ccc(P(c2ccccc2)c2ccccc2)cc1.c1cnn([BH-](n2cccn2)n2cccn2)c1 [Ag2, [Ag(HBPz3)(PPh3)]] |  |  |  |  |  |  |  |  |  | statistically significant difference compared to the group without treatment | reduction in lesion volume |  |  |  |  |  |  |  |  |  | Mean difference in lesion volume versus Glucantime ([4]; after the 14th day of treatment, no statistical difference): 4.38; Cytotoxicity (in words) ([6]; murine peritoneal macrophages): did not show cytotoxic activity; TrxR inhibition (in words) (mammalian TrxR): very strong inhibitor; Cytotoxicity (in words) (human monocytes; human monocytes): did not show cytotoxic activity; Cytotoxic activity toward cancer cell lines (in words) [10]: remarkable cytotoxic activity
C[C@@H]1[C@H](O)[C@@H](C)/C=C/C=C/C=C/C=C/C=C/C=C/C=C/[C@H](O[C@@H]2O[C@H](C)[C@@H](O)[C@H](N)[C@@H]2O)C[C@@H]2O[C@](O)(C[C@@H](O)C[C@@H](O)[C@H](O)CC[C@@H](O)C[C@@H](O)CC(=O)O[C@H]1C)C[C@H](O)[C@H]2C(=O)O [amphotericin B®, amphotericin B] |  |  |  |  |  |  |  |  |  |  |  |  |  |  |  |  |  |  |  |  | IC50 amastigote [11]: 1.20 µg/mL (≈ 1.3 µM)
meglumine antimoniate [Glucantime®, reference compound] | 294.6 ± 0.38 | 317.2 ± 1.75 | 391 ± 1.38 | 292.1 ± 2.4 | 343.1 ± 2.37 | 435.6 ± 3.03 | 48.2 ± 0.77 | 70.2 ± 1.62 | 101 ± 1.02 |  | reduction in lesion volume | 57.1 ± 0.77 | 279.2 ± 1.95 | 318.7 ± 1.48 | 286.6 ± 1.28 | 376.5 ± 2.74 | 453.7 ± 3.18 | 374.7 ± 0.64 | 372.6 ± 1.75 | 427.8 ± 1.32 | Viable parasites in cultures of lesion fragments (NNN medium) [4]: Viable parasites were observed; Clinical cure ([4]; 30 days of treatment): no clinical cure was obtained; CC50 ([6]; 24 h): 179 ± 0.23 µM; CC50 ([6]; 48 h): 205.2 ± 1.25 µM; CC50 ([6]; 72 h): 212 ± 2.48 µM; CC50 (human monocytes; human monocytes, 24 h): 149 ± 1.52 µM; CC50 (human monocytes; human monocytes, 48 h): 255 ± 2.74 µM; CC50 (human monocytes; human monocytes, 72 h): 398.4 ± 1.18 µM; Viable parasites in cultures of lesion fragments (NNN medium) [8]: presence of viable parasites
